Test system: Candida albicans (ATCC 10231)
Assay: Visual release protocol: inhibition of C. albicans attachment to skin (tape strips and cyanoacrylate skin pulls), fluorescence microscopy cell count
Type: cell-based
Conditions: for % Inhibition of yeast attachment / 90 View Total (number of yeast cells) / AVG per view (number of yeast cells): 2% farnesol in TSB, 60 minutes at 33 degrees Celsius; for % Inhibition of yeast attachment: 100-((sample # of cells)/(control # of cells)x100); for 90 View Total (number of yeast cells) / AVG per view (number of yeast cells): view = 6000 um^2
Description: Candida albicans (ATCC 10231) was used in this study. C. albicans was sub-cultured onto a Sabourads medium fortified with glucose (SAB-Dex) agar plate (Becton Dickinson, Cockeysville, Md.) overnight at 37 degrees Celsius. The following day, 2-3 isolated C. albicans colonies were inoculated into 20 ml SAB-Dex broth and incubated overnight shaken at 220 rpm at 32 degrees Celsius for 18 hours. The broth culture was diluted to 1×10^5 CFU/ml with phosphate buffer (VWR Industries, Batavia, Ill.).
The following protocol was used to measure the inhibition of C. albicans to skin (skin tape strips and cyanoacrylate skin pulls) by farnesol. Skin tape strips were made by pulling D-Squame skin sampling discs (CuDerm Corporation, Dallas, Tex.) four times from adjacent adult male volar forearm sites. Cyanoacrylate pulls were done by putting a small amount of super glue on the skin then placing a glass slide on the wetted surface. The glue was allowed to dry then the slide was removed, pulling off the stratum corneum. The tape strips and glue pulls (both will be referred to as strips in subsequent descriptions) were placed into deep six-well plates (Becton Dickinson, Franklin Lakes, N.J.). The strips were then blocked with 2.0 ml of 5% Bovine Serum Albumin (BSA) (Sigma, St. Louis, Mo.) in PBS buffer (150 mM NaCl, 50 mM Potassium Phosphate (KP), pH 7.4) for 60 minutes at 33 degrees Celsius while shaking at 220 rpm.
Next, each well's fluid was removed and 1.0 ml (10^5 Colony Forming Units (CFU)/ml) C. albicans was added to each strip. Then, 1.0 ml of Trypticase Soy Broth (TSB) [Difco Labs, Detroit, Mich.] containing 2% farnesol (DRAGOCO, Totowa, N.J.) was added to each strip, and the plates incubated at 33 degrees Celsius for 60 minutes. The fluid was aspirated, and the strips were washed 3 times with 3.0 ml PBS. Both sides of each tape strip were washed with a stream of PBS then placed in fresh 6-well plates.
Each strip was fixed by adding 2.0 ml of 2.5% Glutaraldehyde (Sigma Chemical, St. Louis, Mo.) to each of the wells of the 6-well plates for 10 minutes. The tape strips were then washed 3 times with 3.0 ml distilled water and stained by adding 0.5 ml Calcofluor White (Difco, Ann Arbor, Mich.) to the wells for 10 to 15 minutes. The tape strips were again washed 3 times with distilled water and then flooded with 2 ng/ml Nile Red (Sigma Chemical, St. Louis, Mo.) and allowed to air dry.
Once the tape strips air-dried, the yeast cells were enumerated automatically utilizing a Nikon Eclipse TE 300 fluorescent microscope fitted with a DAPI excitation filter and a Triple Pass barrier filter (Tokyo, Japan). The counting procedure was automated (Table 1 and Table 2) through the use of MetaMorph (Universal Imaging, Dowingtown, Pa.) software such that each sample had 30 views. Each image view was a 6000 um^2. The total field of view was approximately 25% of the total tape strip and 75% of the cyanoacrylate pull. The percent inhibition was calculated as follows: 100-((sample # of cells)/(control # of cells)×100). Approximately 10^4 yeast cells bound to a 22-mm diameter D-Squame tape strip under these conditions.

[1] = Cyanoacrylate pull of human volar forearm skin
[2] = Tape strip of human volar forearm skin

**Q.** How did the “% Inhibition of yeast attachment” value [1] turn out when `CC(C)=CCCC(C)=CCCC(C)=CCO` [Farnesol, 3,7,11-trimethyl-2,6,10-dodecatrien-1-ol] was run?
**A.** Its value is 93.8%.

**Q.** What about the “% Inhibition of yeast attachment” value (Cyanoacrylate pull of human volar forearm skin, listed as farnesol) of the same compound?
**A.** The value was 94%.

**Q.** And the “90 View Total (number of yeast cells)” value [1]?
**A.** Its value is 955.

**Q.** What about the “AVG per view (number of yeast cells)” value [1] of the same compound?
**A.** The value was 10.6.

**Q.** What about the “% Inhibition of yeast attachment” value [2] of the same compound?
**A.** The value was 63.8%.

**Q.** And the “% Inhibition of yeast attachment” value (Tape strip of human volar forearm skin, listed as farnesol)?
**A.** Its value is 64%.

**Q.** And the “90 View Total (number of yeast cells)” value [2]?
**A.** Its value is 6963.

**Q.** And the “AVG per view (number of yeast cells)” value [2]?
**A.** The value was 77.4.

**Q.** And the “inhibition of the attachment of yeast to skin (in words)” value (farnesol at a concentration of 2%)?
**A.** Its value is “effectively inhibit the attachment of yeast to skin”.
